Values quoted from earlier work, collected in patent US10385093B2, “Estrogen receptor imaging agents” (Northeastern University, priority 2012, dated 2019).

Key:
[1] = small animal studies
ER = conditions: binding to ER in target tissues
[2] = rats, by 60 minutes after injection
[3] = molecular target: T1, steroid hormone binding globulin (SHBG) (Homo sapiens, UniProt P04278)
T1 construct: host or cells: circulating plasma
T1 sequence (P04278 30-402): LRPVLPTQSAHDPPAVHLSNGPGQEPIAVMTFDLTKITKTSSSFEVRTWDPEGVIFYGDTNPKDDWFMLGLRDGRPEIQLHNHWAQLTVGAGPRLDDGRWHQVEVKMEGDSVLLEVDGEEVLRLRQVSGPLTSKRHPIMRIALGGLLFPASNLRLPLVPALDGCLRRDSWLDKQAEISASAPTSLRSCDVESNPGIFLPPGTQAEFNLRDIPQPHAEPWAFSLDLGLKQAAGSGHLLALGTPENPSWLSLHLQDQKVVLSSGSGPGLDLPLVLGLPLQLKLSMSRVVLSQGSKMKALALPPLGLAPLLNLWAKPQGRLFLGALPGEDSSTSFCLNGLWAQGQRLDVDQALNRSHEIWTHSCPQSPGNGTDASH

[4] = plasma of patients

selectivity uptake ratios compared with [^18F]-ES [1] | relative binding affinity (RBA) (ER) [%] | circulating radioactivity due to [18F]-FES [2] | FES in circulating plasma complexed with SHBG [3] [%] | radioactivity in plasma that is parent FES [4] | SMILES
higher selectivity uptake ratios |  |  |  |  | CO[C@H]1C[C@]2(C)[C@@H](O)[C@H]([18F])C[C@H]2[C@@H]2CCc3c(ccc(O)c3F)[C@H]21 [4FMFES, 4-Fluoro-11β-methoxy-16α-[^18F]-flouroestradiol]
 | 80 | less than 15% | ≤ 45 | less than 20% | C[C@]12CC[C@@H]3c4ccc(O)cc4CC[C@H]3[C@@H]1C[C@@H](F)[C@@H]2O [FES, [^18F]-16α-fluoroestradiol]
